Target: T1, Rhodococcus erythropolis NCIMB 11540 amidase (Rhodococcus erythropolis, UniProt P22984)
T1 construct: made in house; host or cells: E. coli B BL21 (plasmid pMS470-33/3/1/11), crude lysate
T1 sequence (P22984 1-521): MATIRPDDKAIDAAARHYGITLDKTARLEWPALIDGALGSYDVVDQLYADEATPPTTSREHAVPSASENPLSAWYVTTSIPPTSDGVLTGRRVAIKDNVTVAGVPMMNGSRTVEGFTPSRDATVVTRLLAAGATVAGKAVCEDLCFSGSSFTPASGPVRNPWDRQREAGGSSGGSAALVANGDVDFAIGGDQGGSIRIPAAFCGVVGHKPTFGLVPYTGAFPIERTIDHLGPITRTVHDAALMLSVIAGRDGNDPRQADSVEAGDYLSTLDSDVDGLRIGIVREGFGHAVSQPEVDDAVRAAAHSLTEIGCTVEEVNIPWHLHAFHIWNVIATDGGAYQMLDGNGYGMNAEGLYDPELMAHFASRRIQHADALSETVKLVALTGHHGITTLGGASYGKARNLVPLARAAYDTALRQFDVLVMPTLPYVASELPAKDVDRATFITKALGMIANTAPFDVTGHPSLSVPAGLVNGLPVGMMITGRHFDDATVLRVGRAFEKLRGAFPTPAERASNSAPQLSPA
Test: Determination of amidase activity of crude lysates with acetamide
Type: biochemical
Details: pMS470-33/3/1/11 lysate; acetamide (40 mM) in PBS buffer at 37° C.; indophenolblue method
Description: The E. coli B BL21 cells transformed by pMS470-33/3/1/11 were isolated on LB-ampicillin plates and an ONC of 100 ml of LB-ampicillin medium was inoculated with an individual colony. On the next morning a main culture consisting of 250 ml of SOC-ampicillin medium was inoculated into a 1000 ml chicane flask to an OD600 of 0.01 to 0.03 (Beckmann Photometer). […] After reaching the induction density (OD600=1 Beckmann Photometer), the cultures were induced by adding IPTG to a concentration of 0.3 mM. After an induction time of 16 h, the cells were harvested (centrifugation 3000·g, 10 min) and washed with sodium phosphate buffer (0.1 M, pH=7). The pellet produced was resuspended to approximately 5 ml total volume in wash buffer and disintegrated using an ultrasound probe (BRANSON Sonifier 250, 60% power setting, constant sonication; 5 times 30 s each with 1 min pause for cooling) with constant cooling to completeness (visual control of completeness under the microscope). […]
[…] The resultant blue coloration, after dilution of all samples and standards 1:10) with water, was quantified in the spectrophotometer (Perkin Elmer UV/VIS Spectrometer Lambda Bio) at 640 nm. By correlating the increase in blue coloration over time with the extinction values of the standards, the activity (μmol of released ammonium per minute) could be back-calculated.

## CC(N)=O [acetamide]
  activity of crude lysates: approximately 75 U/ml
